According to patent publication US20100279409A1, “METHOD FOR MODIFYING CELLUAR IMMUNE RESONSE BY MODULATING ACTIVIN ACTIVITY” (priority 2007, published 2010):

Columns and labels:
CD8+ T cells = assay: Purified CD8+ T cell activation and expansion with recombinant activin-A; type: cell-based, human; details: anti-CD3/CD28 beads, activin-A 0, 10, 100 ng/ml, 24 or 72 hours
Method: To test this, CD8^+ T cells were purified and labeled with carboxy fluorescein succinimidy/ester (“CFSE” hereafter). These cells were cultured in wells, at 1×10^5 cells/well, in standard medium supplemented with 20 U/ml of IL-2, either with or without anti-CD3/CD28 bead stimulation, in the presence of increasing doses of commercially available, recombinant activin-A (0, 10, and 100 ng/ml), for 24 or 72 hours. Cell division was assessed over time by flow cytometry and IFN-γ production via a standard ELISA.

C57/B6 mice = type: in vivo, mouse; details: 100 ng activin-A subcutaneously, live influenza virus intraperitoneally, day 7
Human NK cells [1] = assay: Western blot for Smad 2/3 in NK cells; type: cell-based; details: ex vivo purified NK cells, 50 ng/ml activin-A, 4 hours
Method: Human NK cells were highly purified, following standard methods; and were either lysed immediately or cultured for 20 hours in medium that had been supplemented with 20 U/ml IL-2, either with or without 10 ng/ml of IL-12, or with or without the toll like receptor 3 ligand Poly I:C, 5×10^5, lysed immediately, and then assayed for ALK-4 (an activin type I receptor), and RITA (an activin type II receptor), via qRT-PCR. In parallel, 1×10^5 highly purified NK cells were cultured in medium supplemented with 20 U/ml IL-2, with or without 50 ng/ml of recombinant human activin-A. Cells were harvested after 4 hours, and Western blotting was carried out for Smad 2/3 and β-actin.

Human NK cells [2] = assay: IFN-γ ELISA of purified NK cells; type: cell-based
Method: A total of 1×10^5 highly purified human NK cells were cultured for 20 hours in medium supplemented with 20 U/ml IL-2, and 10 ng/ml IL-12. Either human recombinant activin-A, or TGF-β was added to the cultures, at concentrations of 10, 50 and 100 ng/ml. Supernatants were then tested for IFN-γ via ELISA, using standard methods. In these experiments 1×10^5 highly purified human NK cells were cultured as above, but were cultured with Poly I:C (10 μg/ml), or LPS (100 ng/ml), with or without 10, 50, or 100 ng/ml of recombinant human activin-A. In some cases, the known compound “SB431542,” which blocks activin-A binding to receptors was added. IFN-γ was then measured via ELISA, or by intracellular cytokine staining after 16 hours of culture, via addition of 1 μg/ml BFA, to prevent cytokine release. The impact of activin-A on production of IFN-γ by NK cells, in the absence of dendritic cells, was ascertained. Purified NK cells (1×10^5) were cultured in 96 well-plants, in media that was supplemented with 20 U/ml IL-2 and 10 ng/ml, IL-12, in the absence of, or with increasing concentrations of either activin-A, or TGF-β. Culture supernatants were assayed for IFN-γ after 24 hours of culture, using ELISAs, as described supra. As in the prior experiments, 1×10^5 purified NK cells were cultured in media supplemented with IL-2 only, or IL-2 plus IL-12, either with or without one of poly I:C or LPS, in the presence or absence of increased levels of activin-A.

Human NK cells [3] = assay: CFSE division assay of NK cells; type: cell-based; details: 5 days, activin-A 100 ng/ml
Method: In these experiments, 1×10^5 highly purified human NK cells were labeled with CFSE, and cultured for 5 days in medium supplemented with 20 U/ml IL-2 and 10 ng/ml IL-12, either with or without Poly I:C or LPS, either with or without 100 ng/ml of human recombinant activin-A. Cellular division was assessed by determining loss of CFSE intensity using known, flow cytometric methods.

NK cells [4] = assay: qRT-PCR of NK cell gene expression; type: cell-based, human; details: 16 hours
Method: In a second set of experiments, 5×10^5 purified NK cells were cultured as described herein, in 24 well-plates and were then collected, and lysed after 16 hours of culture.
The lysates were treated to extract the mRNA, which was then subjected to qRT-PCR to determine expression of each of T-bet (a transcription factor), IFN-γ, perforin, granzyme A, and granzyme B.

NK cells [5] = assay: NK cell viability by caspase and PI staining; type: cell-based, human; details: 24 hours
Method: With respect to testing viability, 1×10^5 purified NK cells were cultured as described supra, in 96 well-plates. After 24 hours of culture, cells were stained with antibodies to polycaspase, caspase 3/7, caspase 8 and PI.

[6] = tested on: NK cells (target cells K562 or Jurkat cells); assay: NK cell killing of calcein-labeled target cells; type: cell-based, human; details: 100 ng/ml, 3 days culture, K562 or Jurkat targets, 4 hours
Method: 1×10^6 purified NK cells were cultured in 24 well-plates, either with a high dose of IL-2 (100 U/ml), or a combination of 20 U/ml of IL-2 and IL-12. The culturing took place in the absence of either of activin-A or TGF-β or 100 ng/ml of one of them. The culture continued for 3 days.
After the 3 days of culture, the NK cells were combined with target cells K562 or Jurkat cells, at effector (NK cells): target (K562 or Jurkat cells) ratios of 5:1, 2:1, and 0.1:1. The target cells had been labeled with calcein previously. The total number of labeled target cells was 2×10^4, and the mixture was incubated for 4 hours. The efficiency of killing was determined by measuring calcein dye release via spectrometry.

NK cells [7] = assay: NKp30 expression on NK cells by flow cytometry; type: cell-based, human; details: NK cells after 3 day culture, 100 ng/ml
Method: In order to investigate the mechanism behind these differences, the same NK cells were purified and cryopreserved immediately after the 3 day culture period. The cells were thawed, washed, and stained for NCR. NKp30, with expression levels determined via flow cytometry. The level of expression was also determined using “ex vivo” samples, and NK cells that were cultured, without exposure to targets.

activin-A
CD8+ T cell ability to generate IFN-γ (CD8+ T cells): did not regulate
CD8+ T cell division (CD8+ T cells): did not regulate
peptide specific CD8+ IFN-γ+ T cell response (C57/B6 mice): suppressed
intracellular Smad 2/3 levels (Human NK cells [1]): enhanced intracellular Smad 2/3 levels
IFN-γ production (Human NK cells [2]; NK cells stimulated with Poly I:C, activin-A 10, 50, 100 ng/ml): suppressed IFN-γ production
IFN-γ production (Human NK cells [2]; NK cells, IL-2 and IL-12, 20 hours, 10, 50, 100 ng/ml): as effective as TGF-β in suppressing the production of IFN-γ
IFN-γ production (Human NK cells [2]; NK cells, IL-2 and IL-12, 24 hours, increasing concentrations): as potent as TGF-β in inhibiting IFN-γ production
IFN-γ production (Human NK cells [2]; NK cells, IL-2 plus IL-12 with poly I:C or LPS, increased levels of activin-A): suppressed by addition of activin-A, in a concentration dependent manner
division and proliferation of NK cells (Human NK cells [3]; IL-2, IL-12, LPS): very strongly suppressed
division and proliferation of NK cells (Human NK cells [3]; IL-2, IL-12, Poly I:C): very strongly suppressed
IFN-γ mRNA expression (NK cells [4]): inhibited expression of T-bet and IFN-γ significantly
T-bet mRNA expression (NK cells [4]): inhibited expression of T-bet and IFN-γ significantly
perforin, granzyme A and granzyme B mRNA expression (NK cells [4]): had no effect
apoptosis (polycaspase, caspase 3/7, caspase 8, PI staining) (NK cells [5]): no indication of apoptosis
killing ability of NK cells [6]: had no impact whatsoever
NKp30 expression (NK cells [7]): a very limited effect
